Experimental findings from ChEMBL document CHEMBL1134198, “Structure-activity relationships of quinazoline derivatives: dual-acting compounds with inhibitory activities toward both TNF-alpha production and T cell proliferation” (Bioorg Med Chem Lett, 2001) are described below.

A word on the IC50: it is the midpoint of a concentration-inhibition curve. A low value points to greater potency in that assay.

Test [1] can be described thus: Inhibitory concentration against TNF-alpha production from human peripheral blood mononuclear cells stimulated by LPS. In kind it is functional.
Test [2] is described as follows: Inhibitory concentration against growth of LPS stimulated human peripheral blood mononuclear cells. It counts as functional.
The subject of the next test is T-cell. The experiment in a line: Inhibitory concentration against T cell proliferation using concanavalin A stimulated mice spleen cells. In kind it is functional, cell-based. The following applies: Mus musculus.

Take AURANOFIN: the IC50 in test [1] and in test [2] was more than 30 µM throughout.

Regarding `O=[N+]([O-])c1cc2c(NCCc3ccc(Cl)cc3)ncnc2cc1N1CCOCC1`, the IC50 in test [1] (Homo sapiens) was 24.8 µM; in the test on T-cell it was 8.3 µM; in test [2] (Homo sapiens), 22.5 µM.

For `CN1CCN(c2cc3ncnc(NCCc4ccc(Cl)cc4)c3cc2[N+](=O)[O-])CC1`, the IC50 in test [1] (Homo sapiens) is 1.4 µM; with T-cell it was 1.2 µM; in test [2] (Homo sapiens), 22.1 µM.

For the compound `O=[N+]([O-])c1cc2c(NCCc3ccc(Cl)cc3)ncnc2cc1N1CCN(c2ccccn2)CC1`, the results for the IC50 (in test [1] (Homo sapiens); in the test with T-cell; in test [2] (Homo sapiens)) were more than 30 µM, more than 10 µM and more than 30 µM, respectively.

On to `Clc1ccc(CCNc2ncnc3ccc(Cl)cc23)cc1`, for which the IC50 in test [1] (Homo sapiens) is more than 30 µM; with T-cell, more than 10 µM; in test [2] (Homo sapiens), more than 30 µM.

`Clc1ccc(CCNc2ncnc3cc(Cl)ccc23)cc1`: the IC50 is more than 30 µM in test [1] (Homo sapiens), more than 10 µM in the test with T-cell and more than 30 µM in test [2] (Homo sapiens).

For `O=[N+]([O-])c1cc2c(NCCc3ccc(Cl)cc3)ncnc2cc1N1CCNCC1`, the IC50 worked out at 0.8 µM in test [1] (Homo sapiens), 1.1 µM in the test on T-cell and 12.1 µM in test [2] (Homo sapiens).

As to `CCOc1cc2ncnc(NCCc3ccc(Cl)cc3)c2cc1[N+](=O)[O-]`, the IC50 in test [1] (Homo sapiens) and in test [2] (Homo sapiens) was more than 30 µM each time.

For `COc1cc2ncnc(NCCc3ccc(Cl)cc3)c2cc1[N+](=O)[O-]`, the IC50 in test [1] (Homo sapiens) and in test [2] (Homo sapiens) was more than 30 µM in each case.

As for `O=C(O)c1cc(/N=N/c2ccc(S(=O)(=O)Nc3ccccn3)cc2)ccc1O` [SULFASALAZINE], the IC50 was more than 30 µM in test [1] (Homo sapiens), more than 10 µM in the test on T-cell and more than 30 µM in test [2] (Homo sapiens).

With `Clc1ccc(CCNc2ncnc3ccc(Br)cc23)cc1`, the figures for the IC50 (in test [1] (Homo sapiens); with T-cell; in test [2] (Homo sapiens)) were more than 30 µM, 4.8 µM and more than 30 µM, respectively.

As for `Clc1ccc(CCNc2ncnc3ccc(OCc4ccccc4)cc23)cc1`, the IC50 in test [1] (Homo sapiens) is more than 30 µM; with T-cell, more than 10 µM; in test [2] (Homo sapiens), more than 30 µM.

On to `Cc1nc(NCCc2ccc(Cl)cc2)c2ccccc2n1`, for which the IC50 was more than 30 µM in test [1] (Homo sapiens), 0.2 µM in the test with T-cell and more than 30 µM in test [2] (Homo sapiens).

With `Clc1ccc(CCNc2nc(Cl)nc3ccccc23)cc1`, the IC50 in test [1] (Homo sapiens) was more than 30 µM; in the test on T-cell, 1.2 µM; in test [2] (Homo sapiens), more than 30 µM.

For the compound `CCNc1cc2ncnc(NCCc3ccc(Cl)cc3)c2cc1[N+](=O)[O-]`, the IC50 in test [1] (Homo sapiens) was more than 30 µM; in the test with T-cell, more than 10 µM; in test [2] (Homo sapiens) it was more than 30 µM.

In the case of `Nc1ccc2c(NCCc3ccc(Cl)cc3)ncnc2c1`, the IC50 is more than 30 µM in test [1] (Homo sapiens), 3.4 µM in the test with T-cell and more than 30 µM in test [2] (Homo sapiens).

With `Fc1cc2ncnc(NCCc3ccc(Cl)cc3)c2cc1F`, the IC50 in test [1] (Homo sapiens) and in test [2] (Homo sapiens) was more than 30 µM in each case.

Take `Cc1ccc2ncnc(NCCc3ccc(Cl)cc3)c2c1`: the IC50 is more than 30 µM in test [1] (Homo sapiens), 0.8 µM with T-cell and more than 30 µM in test [2] (Homo sapiens).

On to `O=[N+]([O-])c1cc2c(NCCc3ccc(Cl)cc3)ncnc2cc1Cl`, for which the IC50 in test [1] (Homo sapiens) is more than 30 µM; in the test on T-cell, more than 10 µM; in test [2] (Homo sapiens) it was more than 30 µM.

As to `O=[N+]([O-])c1cc2c(NCCc3ccc(Cl)cc3)ncnc2cc1N1CCN(c2ccccc2)CC1`, the IC50 is more than 30 µM in test [1] (Homo sapiens), more than 10 µM in the test with T-cell and more than 30 µM in test [2] (Homo sapiens).

Turning to `CNc1ccc2ncnc(NCCc3ccc(Cl)cc3)c2c1`, the IC50 is more than 30 µM in test [1] (Homo sapiens), more than 10 µM in the test with T-cell and more than 30 µM in test [2] (Homo sapiens).

Turning to `O=[N+]([O-])c1ccc2c(NCCc3ccc(Cl)cc3)ncnc2c1`, the IC50 in test [1] (Homo sapiens) was more than 30 µM; with T-cell, 5.6 µM; in test [2] (Homo sapiens) it was more than 30 µM.

Turning to `Clc1ccc(CCNc2ncnc3ccc(NCc4ccccc4)cc23)cc1`, the IC50 in test [1] (Homo sapiens) was more than 30 µM; in the test on T-cell, more than 10 µM; in test [2] (Homo sapiens) it was more than 30 µM.

For the compound `O=CNc1ccc2ncnc(NCCc3ccc(Cl)cc3)c2c1`, the IC50 in test [1] (Homo sapiens) is more than 30 µM; with T-cell, more than 10 µM; in test [2] (Homo sapiens), more than 30 µM.

`CC(C)(S)[C@@H](N)C(=O)O` [PENICILLAMINE]: the IC50 in test [1] (Homo sapiens) and in test [2] (Homo sapiens) was more than 30 µM throughout.

Regarding `O=[N+]([O-])c1ccc2ncnc(NCCc3ccc(Cl)cc3)c2c1`, the IC50 was 14.6 µM in test [1] (Homo sapiens), 3.2 µM with T-cell and more than 30 µM in test [2] (Homo sapiens).

Turning to `Nc1ccc2ncnc(NCCc3ccc(Cl)cc3)c2c1`, the IC50 in test [1] (Homo sapiens) is more than 30 µM; with T-cell it was 2.6 µM; in test [2] (Homo sapiens), more than 30 µM.

Take `Clc1ccc(CCNc2nc(-c3ccccc3)nc3ccccc23)cc1`: the IC50 in test [1] (Homo sapiens) was more than 30 µM; in the test on T-cell, more than 10 µM; in test [2] (Homo sapiens) it was more than 30 µM.

For `COc1cc2ncnc(NCCc3ccc(Cl)cc3)c2cc1OC`, the IC50 was more than 30 µM in test [1] (Homo sapiens), 1.4 µM in the test with T-cell and more than 30 µM in test [2] (Homo sapiens).

In the case of `C[C@@H]1C[C@H]2[C@@H]3CCC4=CC(=O)C=C[C@]4(C)[C@@]3(F)[C@@H](O)C[C@]2(C)[C@@]1(O)C(=O)CO` [DEXAMETHASONE], the figures for the IC50 (in test [1] (Homo sapiens); with T-cell; in test [2] (Homo sapiens)) were 0.01 µM, 0.005 µM and 0.04 µM, respectively.

Take `CS(=O)(=O)N1CCN(c2cc3ncnc(NCCc4ccc(Cl)cc4)c3cc2[N+](=O)[O-])CC1`: the values for the IC50 (in test [1] (Homo sapiens); in the test on T-cell; in test [2] (Homo sapiens)) were more than 30 µM, 4.3 µM and 4.5 µM, respectively.

For the compound `Clc1ccc(CCNc2ncnc3ccccc23)cc1`, the IC50 is more than 30 µM in test [1] (Homo sapiens), 0.5 µM in the test on T-cell and more than 30 µM in test [2] (Homo sapiens).

As to `CN(C)c1cc2ncnc(NCCc3ccc(Cl)cc3)c2cc1[N+](=O)[O-]`, the IC50 came to 19.4 µM in test [1] (Homo sapiens), 8.6 µM in the test on T-cell and 27.3 µM in test [2] (Homo sapiens).

For `COc1ccc(C2CNC(=O)C2)cc1OC1CCCC1` (centres undefined) [ROLIPRAM], the values for the IC50 (in test [1] (Homo sapiens); in the test on T-cell; in test [2] (Homo sapiens)) were 0.5 µM, more than 10 µM and more than 30 µM, respectively.

For the compound `O=[N+]([O-])c1cc2c(NCCc3ccc(Cl)cc3)ncnc2cc1N1CCCCC1`, the figures for the IC50 (in test [1] (Homo sapiens); in the test with T-cell; in test [2] (Homo sapiens)) were more than 30 µM, more than 10 µM and more than 30 µM, respectively.

In the case of `Oc1ccc2ncnc(NCCc3ccc(Cl)cc3)c2c1`, the IC50 in test [1] (Homo sapiens) was more than 30 µM; with T-cell it was 1.4 µM; in test [2] (Homo sapiens) it was more than 30 µM.

Consider `O=[N+]([O-])c1cc2c(NCCc3ccc(Cl)cc3)ncnc2cc1N1CCCNCC1`, for which the figures for the concentration for half-maximal inhibition (IC50) (in test [1] (Homo sapiens); with T-cell; in test [2] (Homo sapiens)) were 2.1 µM, 0.9 µM and 9.8 µM, respectively.

For the compound `COc1nc(NCCc2ccc(Cl)cc2)c2ccccc2n1`, the IC50 in test [1] (Homo sapiens) was more than 30 µM; in the test with T-cell it was more than 10 µM; in test [2] (Homo sapiens), more than 30 µM.
